Source: patent US8569011B2, “Fluorescent derivatives of polyamines, method for preparing same and applications thereof as diagnosis tools in the treatment of cancerous tumors” (Pierre Fabre Medicament, priority 2007, dated 2013)

Key:
[1] = system: BL-41; assay: Cytotoxicity, residual ATP (ATPlite kit), 72 hours, BL-41; format: cell-based; details: Homo sapiens, BL-41 leukemic line, 72 hours incubation
Experimental: (§1) An anticancer compound is used, a derivative of epipodophyllotoxin, whose intracellular penetration is dependent on the polyamine transporter, such as the compound described in example 27 of patent application WO 2005/100363 and, as reference compound, etoposide which is a non-vectored epipodophyllotoxin. These two compounds have the same mechanism of action on cancer cells: they are both inhibitors of topoisomerase 2.
(§2) A panel of leukemic lines was assayed to ascertain probe incorporation, here the one described in example 1, regarding the sensitivity to a vectored agent such as the compound in example 27 of patent application WO 2005/100363 and by comparison with non-vectored etoposide. After an incubation time of 72 hours with the compound of example 27 in patent application WO 2005/100363 or with etoposide, cytotoxicity was evaluated using the ATPlite kit. Cells from the same line were also incubated in the presence of the probe described in example 1, and were analyzed by flow cytometry. Fluorescence intensity measured at 525 nm was followed from 0 to 1 hour 30 minutes and the slope of intensity variation was calculated.

[2] = system: BLUE-1; assay: Cytotoxicity, residual ATP (ATPlite kit), 72 hours, BLUE-1; format: cell-based; details: BLUE-1 leukemic line, 72 hours incubation
Experimental: as §1, §2

[3] = system: KG-1; assay: Cytotoxicity, residual ATP (ATPlite kit), 72 hours, KG-1; format: cell-based; details: Homo sapiens, KG-1 leukemic line, 72 hours incubation
Experimental: as §1, §2

[4] = system: U-937; assay: Cytotoxicity, residual ATP (ATPlite kit), 72 hours, U-937; format: cell-based; details: Homo sapiens, U-937 leukemic line, 72 hours incubation
Experimental: as §1, §2

[5] = system: CEM; assay: Cytotoxicity, residual ATP (ATPlite kit), 72 hours, CEM; format: cell-based; details: Homo sapiens, CCRF-CEM, CEM leukemic line, 72 hours incubation
Experimental: as §1, §2

[6] = system: U-937; assay: Fluorescent probe incorporation (polyamine transport activity) by flow cytometry, U-937; format: cell-based; details: (cell intensity with probe presence) - (cell intensity without probe presence), emission 525 nm
Experimental: (§3) Cells taken from biopsies are mechanically separated with or without the presence of trypsin depending on the constitution of the tissue under consideration. The haematopoietic cells are separated and isolated following conventional preparation methods for blood cells. Once isolated after a fairly short time to ensure the viability of the cells being examined, the cells are placed in the presence of the probe such as synthesized in examples 1 to 3 for example, and left to incubate in the recommended culture medium for the tissue under consideration in the presence of aminoguanidine. Aminoguanidine is used to prevent in vitro denaturating of the polyamines. […] An incubation time of one to four hours is sufficient and allows detection of fluorescence by immunochemistry or flow cytometry, by choosing excitation and emission wavelengths compatible with the substituent of the fluorescent probe. This analysis is conducted by flow cytometry or histochemistry following standard methodology in the study described below, by exciting the probe obtained in example 1, N-(3-aminopropyl)-N′-{3-[methyl-(7-nitrobenzo[1,2,5]oxadiazol-4-yl)-amino]-propyl}-butane-1,4-diamine with a 488 nm source and measuring fluorescence emission at 525 nm. […]
(§4) For all the assayed lines, the capacity to incorporate the fluorescent probe, characterized by the fluorescence measured by flow cytometry, was also measured.

[7] = system: BL-41; assay: Fluorescent probe incorporation (polyamine transport activity) by flow cytometry, BL-41; format: cell-based; details: (cell intensity with probe presence) - (cell intensity without probe presence), emission 525 nm
Experimental: as §3, §4

[8] = system: CEM; assay: Fluorescent probe incorporation (polyamine transport activity) by flow cytometry, CEM; format: cell-based; details: (cell intensity with probe presence) - (cell intensity without probe presence), emission 525 nm
Experimental: as §3, §4

[9] = system: A549 cells; assay: Selectivity of the probes vis-a-vis tumor cells: probe incorporation in A549 cells compared with MRC-5 cells; format: cell-based, human
Experimental: as §3

[10] = system: KG-1; assay: Fluorescent probe incorporation (polyamine transport activity) by flow cytometry, KG-1; format: cell-based; details: (cell intensity with probe presence) - (cell intensity without probe presence), emission 525 nm
Experimental: as §3, §4

[11] = system: BLUE-1; assay: Fluorescent probe incorporation (polyamine transport activity) by flow cytometry, BLUE-1; format: cell-based; details: (cell intensity with probe presence) - (cell intensity without probe presence), emission 525 nm
Experimental: as §3, §4

SMILES	IC50 [1]	IC50 [2]	IC50 [3]	IC50 [4]	IC50 [5]	Polyamine transport activity [6]	Polyamine transport activity [7]	Polyamine transport activity [8]	Incorporation differential tumoral cells versus healthy cells ([9]; flow cytometry, A549 vs MRC-5)	Incorporation of the probe in tumoral cells versus cells from healthy tissue ([9]; fluorescence microscope, slide cultured cells, A549 (FIG. 1A) vs MRC-5 healthy lung (FIG. 1B), excitation 488 nm, emission 525 nm)	Polyamine transport activity [10]	Polyamine transport activity [11]
COc1cc([C@@H]2c3cc4c(cc3[C@@H](O[C@@H]3O[C@@H]5CO[C@@H](C)O[C@H]5[C@H](O)[C@H]3O)[C@H]3COC(=O)[C@H]23)OCO4)cc(OC)c1O [Etoposide, etoposide]	400 nM	1000 nM	5000 nM	400 nM	60 nM	–	–	–	–	–	–	–
CN(CCCNCCCCNCCCN)c1ccc([N+](=O)[O-])c2nonc12 [Example 1, N-(3-aminopropyl)-N′-{3-(methyl-(7-nitrobenzo[1,2,5]oxadiazol-4-yl)-amino)-propyl}-butane-1,4-diamine]	–	–	–	–	–	33 Arbitrary Unit of fluorescence	164 Arbitrary Unit of fluorescence	421 Arbitrary Unit of fluorescence	confirmed by flow cytometry	much greater incorporation	17 Arbitrary Unit of fluorescence	58 Arbitrary Unit of fluorescence
